Experiment: pH measurement
Assay type: physicochemical
Description: All measurements of pH and temperature mentioned in this specification were taken on a Hanna Instruments Ltd. device, with the model no. HI98127 (a waterproof pH and ° C./° F. probe). The measurements of pH and temperature could be taken on other generally available pH and temperature probes.

Compound | pH (50 g/l at 20° C.) | pH (1 mol/L at 20° C.)
O=C(O)CC(O)(CC(=O)O)C(=O)O [citric acid] | 1.8 | 
O=P(O)(O)O [phosphoric acid] |  | around 1.08

Source: US20120172451A1, “CLEANING LIQUID” (priority 2010, published 2012)
